In ChEMBL document CHEMBL1140490, “Design and synthesis via click chemistry of 8,9-anhydroerythromycin A 6,9-hemiketal analogues with anti-MRSA and -VRE activity” (2007):
Values after ≈ are worked out from the molar mass of the structure shown.

What was measured:
Enterococcus faecalis = assay: Antimicrobial activity against vancomycin-resistant Enterococcus faecalis NCTC-12201 by serial dilution method; format: functional
Enterococcus faecium = assay: Antimicrobial activity against vancomycin-resistant Enterococcus faecium NCTC-12203 by serial dilution method
Staphylococcus aureus [1] = assay: Antimicrobial activity against Staphylococcus aureus Smith by serial dilution method; format: functional
Staphylococcus aureus [2] = assay: (§1) Antimicrobial activity against Staphylococcus aureus 8325 by serial dilution method; format: functional
Staphylococcus aureus [3] = assay: as §1; format: functional; remark: listed apart in the source
Staphylococcus aureus [4] = assay: Antimicrobial activity against methicillin-resistant Staphylococcus aureus 92-1191 by serial dilution method; format: functional
Staphylococcus aureus [5] = assay: Antimicrobial activity against Staphylococcus aureus ISP447 by serial dilution method; format: functional
Staphylococcus aureus [6] = assay: Antimicrobial activity against methicillin-resistant Staphylococcus aureus N315 IR94 by serial dilution method; format: functional
Staphylococcus aureus [7] = assay: Antimicrobial activity against Staphylococcus aureus FDA209P by serial dilution method; format: functional
Staphylococcus aureus [8] = assay: Antimicrobial activity against methicillin-resistant Staphylococcus aureus N315 IR94-HR-1 by serial dilution method; format: functional
Escherichia coli = assay: Antimicrobial activity against Escherichia coli NIHJ JC-2 by serial dilution method; format: functional
Staphylococcus aureus [9] = assay: Antimicrobial activity against Staphylococcus aureus ISP217 by serial dilution method; format: functional
Staphylococcus aureus [10] = assay: Antimicrobial activity against methicillin-resistant Staphylococcus aureus 70 by serial dilution method; format: functional

SMILES | MIC (Enterococcus faecalis) [µg/mL] | MIC (Enterococcus faecium) [µg/mL] | MIC (Staphylococcus aureus [1]) [µg/mL] | MIC (Staphylococcus aureus [2]) [µg/mL] | MIC (Staphylococcus aureus [3]) [µg/mL] | MIC (Staphylococcus aureus [4]) [µg/mL] | MIC (Staphylococcus aureus [5]) [µg/mL] | MIC (Staphylococcus aureus [6]) [µg/mL] | MIC (Staphylococcus aureus [7]) [µg/mL] | MIC (Staphylococcus aureus [8]) [µg/mL] | MIC (Escherichia coli) [µg/mL] | MIC (Staphylococcus aureus [9]) [µg/mL] | MIC (Staphylococcus aureus [10]) [µg/mL]
CC[C@H]1OC(=O)[C@H](C)[C@@H](OCc2cn(-c3cccnc3)nn2)[C@H](C)[C@@H](O[C@@H]2O[C@H](C)C[C@H](N(C)C)[C@H]2O)[C@@]2(C)CC(C)=C(O2)[C@H](C)[C@@H](OC(=O)C(C)C)[C@]1(C)OC(=O)C(C)C | 32 (≈ 37.4 µM) | 16 (≈ 18.7 µM) | 64 (≈ 74.8 µM) | 16 (≈ 18.7 µM) | 128 (≈ 150 µM) | 32 (≈ 37.4 µM) | 64 (≈ 74.8 µM) | 16 (≈ 18.7 µM) | 32 (≈ 37.4 µM) | 16 (≈ 18.7 µM) | > 128 | 16 (≈ 18.7 µM) | 16 (≈ 18.7 µM)
CC[C@H]1OC(=O)[C@H](C)[C@@H](OCc2cn(CC(=O)Nc3ccccn3)nn2)[C@H](C)[C@@H](O[C@@H]2O[C@H](C)C[C@H](N(C)C)[C@H]2O)[C@@]2(C)CC(C)=C(O2)[C@H](C)[C@@H](OC(=O)C(C)C)[C@]1(C)OC(=O)C(C)C | > 128 | 32 (≈ 35 µM) | 32 (≈ 35 µM) | 16 (≈ 17.5 µM) | 32 (≈ 35 µM) | 32 (≈ 35 µM) | 32 (≈ 35 µM) | 16 (≈ 17.5 µM) | 32 (≈ 35 µM) | 16 (≈ 17.5 µM) | > 128 | 16 (≈ 17.5 µM) | 32 (≈ 35 µM)
CC[C@H]1OC(=O)[C@H](C)[C@@H](OCc2cn(C34CC5CC(CC(C5)C3)C4)nn2)[C@H](C)[C@@H](O[C@@H]2O[C@H](C)C[C@H](N(C)C)[C@H]2O)[C@@]2(C)CC(C)=C(O2)[C@H](C)[C@@H](OC(=O)C(C)C)[C@]1(C)OC(=O)C(C)C | 8 (≈ 8.76 µM) | 8 (≈ 8.76 µM) | 16 (≈ 17.5 µM) | 8 (≈ 8.76 µM) | 16 (≈ 17.5 µM) | 8 (≈ 8.76 µM) | 16 (≈ 17.5 µM) | 8 (≈ 8.76 µM) | 8 (≈ 8.76 µM) | 8 (≈ 8.76 µM) | > 128 | 8 (≈ 8.76 µM) | 8 (≈ 8.76 µM)
CC[C@H]1OC(=O)[C@H](C)[C@@H](OCc2cn(CSc3ccccc3)nn2)[C@H](C)[C@@H](O[C@@H]2O[C@H](C)C[C@H](N(C)C)[C@H]2O)[C@@]2(C)CC(C)=C(O2)[C@H](C)[C@@H](OC(=O)C(C)C)[C@]1(C)OC(=O)C(C)C | 16 (≈ 17.8 µM) | 16 (≈ 17.8 µM) | 32 (≈ 35.5 µM) | 16 (≈ 17.8 µM) | 16 (≈ 17.8 µM) | 16 (≈ 17.8 µM) | 16 (≈ 17.8 µM) | 8 (≈ 8.88 µM) | 16 (≈ 17.8 µM) | 8 (≈ 8.88 µM) | > 128 | 16 (≈ 17.8 µM) | 16 (≈ 17.8 µM)
CC[C@H]1OC(=O)[C@H](C)[C@@H](OCc2cn(CC(=O)OCc3ccccc3)nn2)[C@H](C)[C@@H](O[C@@H]2O[C@H](C)C[C@H](N(C)C)[C@H]2O)[C@@]2(C)CC(C)=C(O2)[C@H](C)[C@@H](OC(=O)C(C)C)[C@]1(C)OC(=O)C(C)C | 32 (≈ 34.5 µM) | 32 (≈ 34.5 µM) | 128 (≈ 138 µM) | 16 (≈ 17.3 µM) | 64 (≈ 69 µM) | 32 (≈ 34.5 µM) | 64 (≈ 69 µM) | 16 (≈ 17.3 µM) | 32 (≈ 34.5 µM) | 16 (≈ 17.3 µM) | > 128 | 16 (≈ 17.3 µM) | 16 (≈ 17.3 µM)
C#CCO[C@H]1[C@H](C)[C@@H](O[C@@H]2O[C@H](C)C[C@H](N(C)C)[C@H]2O)[C@@]2(C)CC(C)=C(O2)[C@H](C)[C@@H](OC(=O)C(C)C)[C@](C)(OC(=O)C(C)C)[C@@H](CC)OC(=O)[C@@H]1C | 16 (≈ 21.7 µM) | 16 (≈ 21.7 µM) | 32 (≈ 43.5 µM) | 16 (≈ 21.7 µM) | 32 (≈ 43.5 µM) | 16 (≈ 21.7 µM) | 32 (≈ 43.5 µM) | 16 (≈ 21.7 µM) | 32 (≈ 43.5 µM) | 16 (≈ 21.7 µM) | > 128 | 16 (≈ 21.7 µM) | 16 (≈ 21.7 µM)
CC[C@H]1OC(=O)[C@H](C)[C@@H](O[C@H]2C[C@@](C)(OC)[C@@H](O)[C@H](C)O2)[C@H](C)[C@@H](O[C@@H]2O[C@H](C)C[C@H](N(C)C)[C@H]2O)[C@@]2(C)CC(C)=C(O2)[C@H](C)[C@@H](OC(=O)C(C)C)[C@]1(C)OC(=O)C(C)C | 64 (≈ 74.8 µM) | 32 (≈ 37.4 µM) | 16 (≈ 18.7 µM) | 16 (≈ 18.7 µM) | 32 (≈ 37.4 µM) | 32 (≈ 37.4 µM) | 32 (≈ 37.4 µM) | 16 (≈ 18.7 µM) | 16 (≈ 18.7 µM) | 16 (≈ 18.7 µM) | > 128 | 16 (≈ 18.7 µM) | 32 (≈ 37.4 µM)
CC[C@H]1OC(=O)[C@H](C)[C@@H](O[C@H]2C[C@@](C)(OC)[C@@H](OC=O)[C@H](C)O2)[C@H](C)[C@@H](O[C@@H]2O[C@H](C)C[C@H](N(C)C)[C@H]2OC(C)=O)[C@@]2(C)CC(C)=C(O2)[C@H](C)[C@@H](OC(=O)C(C)C)[C@]1(C)OC(=O)C(C)C | 32 (≈ 34.6 µM) | 32 (≈ 34.6 µM) | 16 (≈ 17.3 µM) | 16 (≈ 17.3 µM) | 32 (≈ 34.6 µM) | – | 16 (≈ 17.3 µM) | 16 (≈ 17.3 µM) | 16 (≈ 17.3 µM) | 16 (≈ 17.3 µM) | > 128 | 16 (≈ 17.3 µM) | 16 (≈ 17.3 µM)
CC[C@H]1OC(=O)[C@H](C)[C@@H](OCc2cn(-c3cccc4ccccc34)nn2)[C@H](C)[C@@H](O[C@@H]2O[C@H](C)C[C@H](N(C)C)[C@H]2O)[C@@]2(C)CC(C)=C(O2)[C@H](C)[C@@H](OC(=O)C(C)C)[C@]1(C)OC(=O)C(C)C | 32 (≈ 35.4 µM) | 16 (≈ 17.7 µM) | 64 (≈ 70.7 µM) | 16 (≈ 17.7 µM) | 64 (≈ 70.7 µM) | 32 (≈ 35.4 µM) | 32 (≈ 35.4 µM) | 16 (≈ 17.7 µM) | 32 (≈ 35.4 µM) | 16 (≈ 17.7 µM) | > 128 | 16 (≈ 17.7 µM) | 16 (≈ 17.7 µM)
CC[C@H]1OC(=O)[C@H](C)[C@@H](OCc2cn(CCO)nn2)[C@H](C)[C@@H](O[C@@H]2O[C@H](C)C[C@H](N(C)C)[C@H]2O)[C@@]2(C)CC(C)=C(O2)[C@H](C)[C@@H](OC(=O)C(C)C)[C@]1(C)OC(=O)C(C)C | 128 (≈ 156 µM) | 64 (≈ 77.8 µM) | > 128 | 64 (≈ 77.8 µM) | 128 (≈ 156 µM) | 128 (≈ 156 µM) | > 128 | 64 (≈ 77.8 µM) | 64 (≈ 77.8 µM) | 64 (≈ 77.8 µM) | > 128 | 128 (≈ 156 µM) | 64 (≈ 77.8 µM)
CC[C@H]1OC(=O)[C@H](C)[C@@H](O)[C@H](C)[C@@H](O[C@@H]2O[C@H](C)C[C@H](N(C)C)[C@H]2OC(C)=O)[C@@]2(C)CC(C)=C(O2)[C@H](C)[C@@H](OC(=O)C(C)C)[C@]1(C)OC(=O)C(C)C | 64 (≈ 86.5 µM) | 64 (≈ 86.5 µM) | > 128 | 64 (≈ 86.5 µM) | 128 (≈ 173 µM) | 64 (≈ 86.5 µM) | 128 (≈ 173 µM) | 64 (≈ 86.5 µM) | 64 (≈ 86.5 µM) | 64 (≈ 86.5 µM) | > 128 | 64 (≈ 86.5 µM) | 64 (≈ 86.5 µM)
CC[C@H]1OC(=O)[C@H](C)[C@@H](OCc2cn(CC(=O)O)nn2)[C@H](C)[C@@H](O[C@@H]2O[C@H](C)C[C@H](N(C)C)[C@H]2O)[C@@]2(C)CC(C)=C(O2)[C@H](C)[C@@H](OC(=O)C(C)C)[C@]1(C)OC(=O)C(C)C | > 128 | > 128 | > 128 | > 128 | > 128 | – | > 128 | – | > 128 | – | > 128 | > 128 | –
CC[C@H]1OC(=O)[C@H](C)[C@@H](OCc2cn(-c3cnc4ccccc4c3)nn2)[C@H](C)[C@@H](O[C@@H]2O[C@H](C)C[C@H](N(C)C)[C@H]2O)[C@@]2(C)CC(C)=C(O2)[C@H](C)[C@@H](OC(=O)C(C)C)[C@]1(C)OC(=O)C(C)C | 32 (≈ 35.3 µM) | 16 (≈ 17.7 µM) | 32 (≈ 35.3 µM) | 8 (≈ 8.83 µM) | 32 (≈ 35.3 µM) | 16 (≈ 17.7 µM) | 32 (≈ 35.3 µM) | 8 (≈ 8.83 µM) | 16 (≈ 17.7 µM) | 16 (≈ 17.7 µM) | > 128 | 16 (≈ 17.7 µM) | 16 (≈ 17.7 µM)
CC[C@H]1OC(=O)[C@H](C)[C@@H](OCc2cn(Cc3ccccc3)nn2)[C@H](C)[C@@H](O[C@@H]2O[C@H](C)C[C@H](N(C)C)[C@H]2O)[C@@]2(C)CC(C)=C(O2)[C@H](C)[C@@H](OC(=O)C(C)C)[C@]1(C)OC(=O)C(C)C | 16 (≈ 18.4 µM) | 16 (≈ 18.4 µM) | 32 (≈ 36.8 µM) | 8 (≈ 9.2 µM) | 16 (≈ 18.4 µM) | 16 (≈ 18.4 µM) | 16 (≈ 18.4 µM) | 8 (≈ 9.2 µM) | 16 (≈ 18.4 µM) | 8 (≈ 9.2 µM) | > 128 | 16 (≈ 18.4 µM) | 16 (≈ 18.4 µM)
CC[C@H]1OC(=O)[C@H](C)[C@@H](O[C@H]2C[C@@](C)(OC)[C@@H](O)[C@H](C)O2)[C@H](C)[C@@H](O[C@@H]2O[C@H](C)C[C@H](N(C)C)[C@H]2O)[C@](C)(O)C[C@@H](C)C(=O)[C@H](C)[C@@H](O)[C@]1(C)O [ERYTHROMYCIN] | > 256 | > 256 | ≤ 0.5 | > 256 | 64 (≈ 87.2 µM) | > 128 | > 256 | – | ≤ 0.5 | – | > 256 | > 256 | –
